How the values were obtained:
[1] = refractive index (Na D-line) (dimensionless); xn = mol fraction of the nth substance listed; conditions: 101 kPa, Liquid, Standard Abbe refractometry
[2] = xn = mol fraction of the nth substance listed; conditions: Ring tensiometer

NCc1ccccc1 [benzylamine] + O
Conditions	refractive index, 283.15 K	refractive index, 293.15 K	refractive index, 303.15 K	refractive index, 313.15 K	refractive index, 323.15 K	surface tension liquid-gas, 283.15 K [mN/m]	surface tension liquid-gas, 293.15 K [mN/m]	surface tension liquid-gas, 303.15 K [mN/m]	surface tension liquid-gas, 313.15 K [mN/m]	surface tension liquid-gas, 323.15 K [mN/m]
[1], x1 = 0.0001	1.3338	1.3331	1.3321	1.331	1.3298	–	–	–	–	–
[1], x1 = 0.0005	1.3344	1.3337	1.3326	1.3312	1.3297	–	–	–	–	–
[1], x1 = 0.001	1.3351	1.3343	1.3333	1.3318	1.3303	–	–	–	–	–
[1], x1 = 0.003	1.3376	1.3368	1.3357	1.3342	1.3327	–	–	–	–	–
[1], x1 = 0.006	1.3411	1.3403	1.3392	1.3376	1.3361	–	–	–	–	–
[1], x1 = 0.01	1.3461	1.3449	1.3441	1.3423	1.3405	–	–	–	–	–
[1], x1 = 0.03	1.3683	1.367	1.3654	1.3634	1.3614	–	–	–	–	–
[1], x1 = 0.05	1.387	1.3853	1.3834	1.381	1.3787	–	–	–	–	–
[1], x1 = 0.07	1.4047	1.4007	1.3985	1.3961	1.3937	–	–	–	–	–
[1], x1 = 0.1	1.4252	1.4214	1.4183	1.4163	1.4136	–	–	–	–	–
[1], x1 = 0.2	1.468	1.4648	1.4614	1.4592	1.4569	–	–	–	–	–
[1], x1 = 0.3	1.4957	1.4918	1.4879	1.4848	1.4818	–	–	–	–	–
[1], x1 = 0.4	1.5143	1.5097	1.5057	1.5024	1.4985	–	–	–	–	–
[1], x1 = 0.5	1.5263	1.5218	1.5172	1.5129	1.5084	–	–	–	–	–
[1], x1 = 0.6	1.5343	1.5296	1.5252	1.5202	1.5159	–	–	–	–	–
[1], x1 = 0.7	1.5399	1.5355	1.5307	1.5259	1.5211	–	–	–	–	–
[1], x1 = 0.8	1.5447	1.5397	1.5344	1.5296	1.5247	–	–	–	–	–
[1], x1 = 0.9	1.5491	1.5429	1.5375	1.5319	1.527	–	–	–	–	–
[1], x1 = 1	1.5516	1.5445	1.5393	1.5328	1.5279	–	–	–	–	–
[2], x1 = 0.0001	–	–	–	–	–	69.5	67.7	65.5	63.2	61.6
[2], x1 = 0.0005	–	–	–	–	–	60.4	58.1	56.1	54.3	52.3
[2], x1 = 0.001	–	–	–	–	–	54.9	53.1	50.6	48.8	47.2
[2], x1 = 0.003	–	–	–	–	–	48.6	46.1	44.3	42.6	40.1
[2], x1 = 0.006	–	–	–	–	–	42.1	40.7	39.2	37.7	36.4
[2], x1 = 0.01	–	–	–	–	–	41.4	40	38.6	37.5	36
[2], x1 = 0.03	–	–	–	–	–	39.5	38.4	37.5	36.3	35.6
[2], x1 = 0.05	–	–	–	–	–	39.3	38.3	37.5	36.3	35.5
[2], x1 = 0.07	–	–	–	–	–	38.9	38.1	37.3	36.2	35.5
[2], x1 = 0.1	–	–	–	–	–	38.7	38	37.2	36.2	35.4
[2], x1 = 0.2	–	–	–	–	–	38.6	37.8	37	36.1	35.4
[2], x1 = 0.3	–	–	–	–	–	38.4	37.5	36.9	35.9	35.2
[2], x1 = 0.4	–	–	–	–	–	38.4	37.5	36.9	35.9	35.2
[2], x1 = 0.5	–	–	–	–	–	38.3	37.6	36.8	35.9	35.2
[2], x1 = 0.6	–	–	–	–	–	38.2	37.4	36.6	35.7	35.2
[2], x1 = 0.7	–	–	–	–	–	38.1	37.3	36.5	35.8	35.1
[2], x1 = 0.8	–	–	–	–	–	38.1	37.3	36.5	35.8	35.1
[2], x1 = 0.9	–	–	–	–	–	38	37.2	36.4	35.7	35.1
[2], x1 = 1	–	–	–	–	–	37.9	37.1	36.3	35.6	35

CC(N)CN (stereo not given) [1,2-propanediamine] + O
Conditions	refractive index, 283.15 K	refractive index, 293.15 K	refractive index, 303.15 K	refractive index, 313.15 K	refractive index, 323.15 K	surface tension liquid-gas, 283.15 K [mN/m]	surface tension liquid-gas, 293.15 K [mN/m]	surface tension liquid-gas, 303.15 K [mN/m]	surface tension liquid-gas, 313.15 K [mN/m]	surface tension liquid-gas, 323.15 K [mN/m]
[1], x1 = 0.01	1.34	1.3392	1.3381	1.3366	1.3352	–	–	–	–	–
[1], x1 = 0.03	1.3522	1.3512	1.3499	1.3488	1.3478	–	–	–	–	–
[1], x1 = 0.05	1.3635	1.3621	1.3604	1.3592	1.3579	–	–	–	–	–
[1], x1 = 0.07	1.374	1.3723	1.3703	1.3685	1.3667	–	–	–	–	–
[1], x1 = 0.1	1.3882	1.3859	1.3835	1.3816	1.3797	–	–	–	–	–
[1], x1 = 0.2	1.4209	1.4173	1.4137	1.4111	1.4085	–	–	–	–	–
[1], x1 = 0.3	1.4356	1.4317	1.4273	1.4236	1.4208	–	–	–	–	–
[1], x1 = 0.4	1.4448	1.4405	1.4363	1.4321	1.4279	–	–	–	–	–
[1], x1 = 0.5	1.4486	1.4443	1.4401	1.4356	1.4311	–	–	–	–	–
[1], x1 = 0.6	1.4504	1.4459	1.4415	1.4369	1.4323	–	–	–	–	–
[1], x1 = 0.7	1.4511	1.4466	1.4418	1.4374	1.4325	–	–	–	–	–
[1], x1 = 0.8	1.4515	1.4468	1.442	1.4371	1.4323	–	–	–	–	–
[1], x1 = 0.9	1.4512	1.4465	1.4415	1.4368	1.4319	–	–	–	–	–
[1], x1 = 1	1.451	1.4458	1.4409	1.4362	1.4314	–	–	–	–	–
[2], x1 = 0.01	–	–	–	–	–	67.4	66.1	64.7	62.8	61
[2], x1 = 0.03	–	–	–	–	–	62.1	60.5	58.7	57.3	56
[2], x1 = 0.05	–	–	–	–	–	58.1	56.4	55	53.7	52.2
[2], x1 = 0.07	–	–	–	–	–	55	53.5	51.9	50.5	49.1
[2], x1 = 0.1	–	–	–	–	–	51.7	50.5	48.9	47.3	45.8
[2], x1 = 0.2	–	–	–	–	–	47.6	46.4	45	43.2	41.9
[2], x1 = 0.3	–	–	–	–	–	44.8	43.7	42.4	41	39.7
[2], x1 = 0.4	–	–	–	–	–	42.5	41.1	40.1	38.6	37.4
[2], x1 = 0.5	–	–	–	–	–	40.6	39.2	37.9	36.6	35.5
[2], x1 = 0.6	–	–	–	–	–	38.3	37.2	36.1	35.1	33.9
[2], x1 = 0.7	–	–	–	–	–	37.5	36.4	35.2	34.1	32.9
[2], x1 = 0.8	–	–	–	–	–	36.2	35.1	33.9	32.7	31.7
[2], x1 = 0.9	–	–	–	–	–	35.4	34.2	33	31.9	30.7
[2], x1 = 1	–	–	–	–	–	35	33.8	32.7	31.4	30.3

— the NIST ThermoML archive (doi:10.1021/je300382a)
